Data on 1 compound can be found in article PMC9719519, “Non-classical ferroptosis inhibition by a small molecule targeting PHB2” (Nature Communications, 2022).

The target of experiment [1] is T1, Pyk2(h) (Homo sapiens, UniProt Q14289).
T1 construct: gene PTK2B
The experiment is described as follows: biochemical. Details: Eurofins recombinant human kinase profiling, remaining kinase activity as % of control, 10 uM ATP. To be noted: ATP 10 uM; read-out: %Ctrl@10 μM. An outline of the steps: (§1)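 Recombinant human kinases, 401 in total, screened using an outsourced kinase profiling assay.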

The target of experiment [2] is T2, c-RAF(h) (Homo sapiens, UniProt P04049).
T2 construct: gene RAF1
Kind of experiment: biochemical. Details: Eurofins recombinant human kinase profiling, remaining kinase activity as % of control, 10 uM ATP. The following applies: ATP 10 uM; read-out: %Ctrl@10 μM. An outline of the steps:
as §1

Experiment [3] deals with TLK2(h) (Homo sapiens, UniProt Q86UE8). The experiment is described as follows: biochemical. Details: Eurofins recombinant human kinase profiling, remaining kinase activity as % of control, 10 uM ATP. To be noted: ATP 10 uM; read-out: %Ctrl@10 μM. The procedure, abridged:
as §1

The target in experiment [4] is CDK9/cyclin T1(h) (Homo sapiens, UniProt P50750). The experiment is described as follows: biochemical. Details: Eurofins recombinant human kinase profiling, remaining kinase activity as % of control, 10 uM ATP. To be noted: ATP 10 uM; read-out: %Ctrl@10 μM. An outline of the steps:
as §1

Experiment [5] concerns the target mTOR(h) (Homo sapiens, UniProt P42345). The experiment is described as follows: biochemical. Details: Eurofins recombinant human kinase profiling, remaining kinase activity as % of control, 10 uM ATP. To be noted: ATP 10 uM; read-out: %Ctrl@10 μM. The procedure, abridged: as §1
Experiment [6] concerns the target T3, Ros(h) (Homo sapiens, UniProt P08922).
T3 construct: gene ROS1
The experiment is described as follows: biochemical. To be noted: ATP 10 uM; read-out: %Ctrl@10 μM. Details: Eurofins recombinant human kinase profiling, remaining kinase activity as % of control, 10 uM ATP. An outline of the steps:
as §1

In experiment [7] the target is GRK2(h) (Homo sapiens, UniProt P25098). Kind of experiment: biochemical. Details: Eurofins recombinant human kinase profiling, remaining kinase activity as % of control, 10 uM ATP. The following applies: ATP 10 uM; read-out: %Ctrl@10 μM. An outline of the steps: as §1
Experiment [8] deals with T4, CHK1(h) (Homo sapiens, UniProt O14757).
T4 construct: gene CHEK1
Kind of experiment: biochemical. To be noted: ATP 10 uM; read-out: %Ctrl@10 μM. Details: Eurofins recombinant human kinase profiling, remaining kinase activity as % of control, 10 uM ATP. The procedure, abridged: as §1

Experiment [9] has as its target TNIK(h) (Homo sapiens, UniProt Q9UKE5). The experiment is described as follows: biochemical. To be noted: ATP 10 uM; read-out: %Ctrl@10 μM. Details: Eurofins recombinant human kinase profiling, remaining kinase activity as % of control, 10 uM ATP. The procedure, abridged:
as §1

Experiment [10] has as its target T5, Tie2(R849W)(h) (Homo sapiens, UniProt Q02763, R849W).
T5 construct: gene TEK
Kind of experiment: biochemical. Details: Eurofins recombinant human kinase profiling, remaining kinase activity as % of control, 10 uM ATP. The following applies: ATP 10 uM; read-out: %Ctrl@10 μM. The procedure, abridged: as §1

The target in experiment [11] is T6, PKCζ(h) (Homo sapiens, UniProt Q05513).
T6 construct: gene PRKCZ
The experiment is described as follows: biochemical. Further details: Eurofins recombinant human kinase profiling, remaining kinase activity as % of control, 10 uM ATP. To be noted: ATP 10 uM; read-out: %Ctrl@10 μM. An outline of the steps: as §1

Experiment [12] deals with Hck(h) (Homo sapiens, UniProt P08631). Kind of experiment: biochemical. Further details: Eurofins recombinant human kinase profiling, remaining kinase activity as % of control, 10 uM ATP. The following applies: ATP 10 uM; read-out: %Ctrl@10 μM. An outline of the steps:
as §1

The target in experiment [13] is T7, PKAcβ(h) (Homo sapiens, UniProt P22694).
T7 construct: gene PRKACB
Kind of experiment: biochemical. Details: Eurofins recombinant human kinase profiling, remaining kinase activity as % of control, 10 uM ATP. The following applies: ATP 10 uM; read-out: %Ctrl@10 μM. An outline of the steps: as §1

Experiment [14] addresses T8, SAPK4(h) (Homo sapiens, UniProt O15264).
T8 construct: gene MAPK13
The experiment is described as follows: biochemical. Further details: Eurofins recombinant human kinase profiling, remaining kinase activity as % of control, 10 uM ATP. The following applies: ATP 10 uM; read-out: %Ctrl@10 μM. The procedure, abridged:
as §1

Experiment [15] addresses PAK3(h) (Homo sapiens, UniProt O75914). The experiment is described as follows: biochemical. To be noted: ATP 10 uM; read-out: %Ctrl@10 μM. Further details: Eurofins recombinant human kinase profiling, remaining kinase activity as % of control, 10 uM ATP. An outline of the steps: as §1
The target of experiment [16] is NEK4(h) (Homo sapiens, UniProt P51957). Kind of experiment: biochemical. The following applies: ATP 10 uM; read-out: %Ctrl@10 μM. Further details: Eurofins recombinant human kinase profiling, remaining kinase activity as % of control, 10 uM ATP. An outline of the steps: as §1
Experiment [17] concerns the target Flt4(h) (Homo sapiens, UniProt P35916). Kind of experiment: biochemical. To be noted: ATP 10 uM; read-out: %Ctrl@10 μM. Further details: Eurofins recombinant human kinase profiling, remaining kinase activity as % of control, 10 uM ATP. The procedure, abridged:
as §1

For experiment [18], the target named is T9, MRCKα(h) (Homo sapiens, UniProt Q5VT25).
T9 construct: gene CDC42BPA
The experiment is described as follows: biochemical. Details: Eurofins recombinant human kinase profiling, remaining kinase activity as % of control, 10 uM ATP. To be noted: ATP 10 uM; read-out: %Ctrl@10 μM. The procedure, abridged: as §1

Experiment [19] concerns the target T10, CHK2(I157T)(h) (Homo sapiens, UniProt O96017, I157T).
T10 construct: gene CHEK2
The experiment is described as follows: biochemical. Further details: Eurofins recombinant human kinase profiling, remaining kinase activity as % of control, 10 uM ATP. To be noted: ATP 10 uM; read-out: %Ctrl@10 μM. The procedure, abridged: as §1

For experiment [20], the target named is CaMKK1(h) (Homo sapiens, UniProt Q8N5S9). Kind of experiment: biochemical. Details: Eurofins recombinant human kinase profiling, remaining kinase activity as % of control, 10 uM ATP. To be noted: ATP 10 uM; read-out: %Ctrl@10 μM. An outline of the steps: as §1
Experiment [21] concerns the target T11, Rsk1(h) (Homo sapiens, UniProt Q15418).
T11 construct: gene RPS6KA1
The experiment is described as follows: biochemical. Details: Eurofins recombinant human kinase profiling, remaining kinase activity as % of control, 10 uM ATP. To be noted: ATP 10 uM; read-out: %Ctrl@10 μM. An outline of the steps: as §1

Experiment [22] has as its target prohibitin 2 (PHB2) (Homo sapiens, UniProt Q99623). The experiment is described as follows: SPR on purified recombinant PHB2 […]-194; DSF shift […] °C; DARTS in cells. Further details: PHB2 1–194 (6× His tag). It is filed as binding.

T9 sequence (Q5VT25 whole entry): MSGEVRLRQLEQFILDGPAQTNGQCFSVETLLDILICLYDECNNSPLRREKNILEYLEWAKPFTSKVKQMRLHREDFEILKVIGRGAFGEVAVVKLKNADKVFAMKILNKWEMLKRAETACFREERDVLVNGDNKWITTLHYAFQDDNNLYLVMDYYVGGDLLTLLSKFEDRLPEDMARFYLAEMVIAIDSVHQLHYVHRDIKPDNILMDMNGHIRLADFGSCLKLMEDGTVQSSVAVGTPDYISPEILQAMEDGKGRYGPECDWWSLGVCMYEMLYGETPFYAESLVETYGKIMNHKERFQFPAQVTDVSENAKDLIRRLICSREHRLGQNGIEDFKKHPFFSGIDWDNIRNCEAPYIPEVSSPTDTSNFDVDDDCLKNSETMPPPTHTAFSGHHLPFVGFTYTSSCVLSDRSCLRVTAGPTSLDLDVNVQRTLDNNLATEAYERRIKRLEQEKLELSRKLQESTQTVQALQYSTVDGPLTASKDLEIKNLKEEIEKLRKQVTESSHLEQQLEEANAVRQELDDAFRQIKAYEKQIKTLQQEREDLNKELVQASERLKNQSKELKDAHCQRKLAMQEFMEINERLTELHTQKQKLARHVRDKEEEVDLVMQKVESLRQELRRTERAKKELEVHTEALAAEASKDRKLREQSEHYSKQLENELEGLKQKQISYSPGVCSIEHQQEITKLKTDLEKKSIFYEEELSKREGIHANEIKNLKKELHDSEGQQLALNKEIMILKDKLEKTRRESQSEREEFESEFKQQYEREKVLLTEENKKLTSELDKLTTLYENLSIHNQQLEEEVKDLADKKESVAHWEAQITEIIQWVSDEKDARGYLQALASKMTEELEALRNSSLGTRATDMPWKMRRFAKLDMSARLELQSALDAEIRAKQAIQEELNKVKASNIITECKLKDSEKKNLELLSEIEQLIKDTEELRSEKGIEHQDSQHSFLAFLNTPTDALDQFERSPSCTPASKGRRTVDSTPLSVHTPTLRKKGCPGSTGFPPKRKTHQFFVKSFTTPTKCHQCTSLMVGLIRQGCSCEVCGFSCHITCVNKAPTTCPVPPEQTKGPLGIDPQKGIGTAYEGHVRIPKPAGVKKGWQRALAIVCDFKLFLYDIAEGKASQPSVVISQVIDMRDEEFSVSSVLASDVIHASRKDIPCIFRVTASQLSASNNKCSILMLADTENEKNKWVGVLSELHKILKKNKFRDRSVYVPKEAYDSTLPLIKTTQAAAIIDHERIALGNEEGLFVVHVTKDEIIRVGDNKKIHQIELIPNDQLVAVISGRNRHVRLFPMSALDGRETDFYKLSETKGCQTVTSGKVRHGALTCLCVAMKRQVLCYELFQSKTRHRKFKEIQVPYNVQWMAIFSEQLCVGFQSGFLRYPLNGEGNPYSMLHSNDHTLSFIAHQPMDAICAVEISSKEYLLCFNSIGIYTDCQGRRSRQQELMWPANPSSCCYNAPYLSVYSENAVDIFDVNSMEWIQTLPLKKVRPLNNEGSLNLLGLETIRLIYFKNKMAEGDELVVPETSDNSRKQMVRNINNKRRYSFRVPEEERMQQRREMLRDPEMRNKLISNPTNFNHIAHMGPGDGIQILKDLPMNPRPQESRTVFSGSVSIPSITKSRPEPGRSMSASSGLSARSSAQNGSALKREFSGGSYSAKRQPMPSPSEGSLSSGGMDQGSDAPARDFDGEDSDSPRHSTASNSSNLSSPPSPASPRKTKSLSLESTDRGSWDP
T10 sequence (O96017 whole entry I157T): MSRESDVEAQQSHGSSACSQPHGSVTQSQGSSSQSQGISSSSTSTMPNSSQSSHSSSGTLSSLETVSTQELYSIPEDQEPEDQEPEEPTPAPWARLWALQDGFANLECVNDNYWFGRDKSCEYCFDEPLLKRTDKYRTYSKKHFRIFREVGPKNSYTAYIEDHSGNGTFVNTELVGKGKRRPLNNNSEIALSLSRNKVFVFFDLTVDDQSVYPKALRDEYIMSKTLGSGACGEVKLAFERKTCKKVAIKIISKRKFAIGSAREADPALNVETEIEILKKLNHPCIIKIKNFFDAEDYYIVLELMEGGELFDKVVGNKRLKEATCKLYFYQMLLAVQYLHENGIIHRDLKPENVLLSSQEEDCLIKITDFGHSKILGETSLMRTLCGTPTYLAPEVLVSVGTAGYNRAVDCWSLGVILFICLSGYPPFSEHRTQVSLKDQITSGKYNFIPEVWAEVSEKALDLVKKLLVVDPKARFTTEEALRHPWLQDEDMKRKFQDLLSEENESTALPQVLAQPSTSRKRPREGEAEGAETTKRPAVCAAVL
Sequence of CDK9/cyclin T1(h) (P50750 whole entry): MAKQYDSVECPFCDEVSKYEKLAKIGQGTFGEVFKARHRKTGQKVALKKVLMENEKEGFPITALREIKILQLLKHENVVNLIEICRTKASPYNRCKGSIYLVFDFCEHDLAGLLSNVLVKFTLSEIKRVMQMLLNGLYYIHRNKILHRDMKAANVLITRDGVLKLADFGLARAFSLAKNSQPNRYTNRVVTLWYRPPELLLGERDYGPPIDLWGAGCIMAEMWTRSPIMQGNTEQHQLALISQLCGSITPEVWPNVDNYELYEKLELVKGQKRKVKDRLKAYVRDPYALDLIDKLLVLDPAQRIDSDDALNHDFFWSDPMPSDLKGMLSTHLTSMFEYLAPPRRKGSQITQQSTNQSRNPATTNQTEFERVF
Sequence of CDK9/cyclin T1(h) (O60563 whole entry partner): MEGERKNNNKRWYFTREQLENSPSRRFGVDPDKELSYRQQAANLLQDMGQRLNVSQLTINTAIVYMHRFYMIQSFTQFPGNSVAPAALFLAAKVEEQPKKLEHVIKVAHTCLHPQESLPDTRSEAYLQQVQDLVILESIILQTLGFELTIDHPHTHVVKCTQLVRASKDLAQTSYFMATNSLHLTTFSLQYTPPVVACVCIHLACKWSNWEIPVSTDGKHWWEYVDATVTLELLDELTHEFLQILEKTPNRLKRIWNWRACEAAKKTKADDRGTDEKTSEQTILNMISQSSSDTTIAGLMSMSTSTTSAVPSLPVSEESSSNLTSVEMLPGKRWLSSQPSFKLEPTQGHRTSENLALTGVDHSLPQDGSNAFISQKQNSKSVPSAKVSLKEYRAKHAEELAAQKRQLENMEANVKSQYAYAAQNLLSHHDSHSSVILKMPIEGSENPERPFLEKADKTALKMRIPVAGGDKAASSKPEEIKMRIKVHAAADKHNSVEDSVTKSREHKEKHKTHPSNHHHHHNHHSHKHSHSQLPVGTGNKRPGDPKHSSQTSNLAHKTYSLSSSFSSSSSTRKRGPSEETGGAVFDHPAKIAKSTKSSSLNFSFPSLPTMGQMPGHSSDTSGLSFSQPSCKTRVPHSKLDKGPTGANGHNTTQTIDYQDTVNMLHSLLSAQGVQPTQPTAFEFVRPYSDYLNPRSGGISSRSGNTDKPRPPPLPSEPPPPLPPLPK
T5 sequence (Q02763 whole entry R849W): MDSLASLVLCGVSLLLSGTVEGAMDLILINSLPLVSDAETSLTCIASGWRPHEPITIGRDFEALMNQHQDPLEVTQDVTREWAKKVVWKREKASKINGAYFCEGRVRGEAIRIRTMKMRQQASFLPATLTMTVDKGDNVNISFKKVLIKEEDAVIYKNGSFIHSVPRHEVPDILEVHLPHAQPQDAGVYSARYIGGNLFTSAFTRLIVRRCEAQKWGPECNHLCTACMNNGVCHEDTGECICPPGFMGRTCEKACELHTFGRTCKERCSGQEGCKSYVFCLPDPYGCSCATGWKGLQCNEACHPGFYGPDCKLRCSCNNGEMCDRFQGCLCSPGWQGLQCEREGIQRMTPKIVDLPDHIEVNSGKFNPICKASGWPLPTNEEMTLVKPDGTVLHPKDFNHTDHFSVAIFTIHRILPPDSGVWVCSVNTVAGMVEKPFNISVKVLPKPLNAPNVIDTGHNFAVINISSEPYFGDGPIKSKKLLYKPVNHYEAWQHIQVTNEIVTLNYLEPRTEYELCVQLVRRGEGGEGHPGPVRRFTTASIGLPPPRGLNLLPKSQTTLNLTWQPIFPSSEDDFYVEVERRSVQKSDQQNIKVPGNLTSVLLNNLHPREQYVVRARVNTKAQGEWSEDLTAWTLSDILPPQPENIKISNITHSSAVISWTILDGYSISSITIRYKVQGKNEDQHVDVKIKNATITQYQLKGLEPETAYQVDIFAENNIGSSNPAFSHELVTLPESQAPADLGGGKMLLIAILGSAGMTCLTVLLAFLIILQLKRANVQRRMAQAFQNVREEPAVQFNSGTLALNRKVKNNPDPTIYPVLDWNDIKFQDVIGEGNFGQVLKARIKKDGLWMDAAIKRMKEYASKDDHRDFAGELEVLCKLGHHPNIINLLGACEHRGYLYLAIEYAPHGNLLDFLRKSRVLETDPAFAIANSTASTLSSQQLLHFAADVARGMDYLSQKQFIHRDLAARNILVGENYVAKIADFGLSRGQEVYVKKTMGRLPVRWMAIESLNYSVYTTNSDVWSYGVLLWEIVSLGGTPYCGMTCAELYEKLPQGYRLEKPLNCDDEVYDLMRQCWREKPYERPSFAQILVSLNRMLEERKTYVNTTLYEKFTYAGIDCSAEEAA
Sequence of Hck(h) (P08631 whole entry): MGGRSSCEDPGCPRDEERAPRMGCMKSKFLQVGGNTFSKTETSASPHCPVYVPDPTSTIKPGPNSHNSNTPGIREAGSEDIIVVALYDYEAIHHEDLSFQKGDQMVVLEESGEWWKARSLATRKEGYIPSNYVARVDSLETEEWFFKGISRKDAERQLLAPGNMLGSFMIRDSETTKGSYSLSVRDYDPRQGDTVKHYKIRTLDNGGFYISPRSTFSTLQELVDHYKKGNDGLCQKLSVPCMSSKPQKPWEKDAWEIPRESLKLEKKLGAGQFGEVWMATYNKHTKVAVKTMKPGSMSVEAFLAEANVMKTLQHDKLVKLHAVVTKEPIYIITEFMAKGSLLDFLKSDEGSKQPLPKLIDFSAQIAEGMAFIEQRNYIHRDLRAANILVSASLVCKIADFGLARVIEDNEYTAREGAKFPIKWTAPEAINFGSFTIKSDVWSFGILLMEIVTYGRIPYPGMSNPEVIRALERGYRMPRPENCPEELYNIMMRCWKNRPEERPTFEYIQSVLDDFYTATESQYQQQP

In general, Kd refers to the concentration at which binding is half-saturated. Take `C1=C(c2nc(-c3cnn(C4CCNCC4)c3)cn3cc(-c4ccccc4)nc23)CCOC1` [YL-939]: the remaining activity at 10 µM in [1] stood at 108%; in experiment [2], 76%; in [3], 88%; in experiment [4], 119%; in [5] it was 91%; in experiment [6], 97%. For the same compound, the remaining activity at 10 µM in experiment [7] was 111%; in experiment [8] it was 98%; in [9] it was 56%; in [10], 122%; in [11] it was 94%; in experiment [12], 98%. Also, the remaining activity at 10 µM in experiment [13] was 94%; in experiment [14] it was 100%; in experiment [15] it was 70%; in [16], 118%; in [17], 85%; in experiment [18] it was 92%. Also, the remaining activity at 10 µM in experiment [19] stood at 87%; in experiment [20], 91%; in experiment [21], 94%. Also, the Kd in experiment [22] amounted to 3.43 µM.
